Experimental data published in US20090214669A1, “Combination anticancer therapy and pharmaceutical compositions therefore” (priority 2004, published 2009).
“Also recorded” adds a separate entry of the source.

Assays:
[1] = Single dose i.v. infusion study of OM-174 in cancer patients (tolerability, cytokines); format: in vivo
Procedure: Doses higher than 1 mg OM-174/m^2 by i.v. infusion were reached without unacceptable toxicity according to non-haematological grade III and haematological grade IV NCI Common Toxicity Criteria.
Secretion occurred in all steps, and appeared more “patient”- than “dose”-dependent.
The results of this single dose study led to the selection of three doses (0.6, 0.8, and 1.0 mg OM-174/m^2) for repeated i.v. injections (5 to 15 injections), used in a phase Ib study.

B16 melanoma = B16 melanoma model: tumour growth and survival time; format: in vivo, C57BL/6 mice; conditions: CY 200 mg/Kg i.p. day 7; OM-174 1 mg/kg i.p. days 8, 13, 18, 23, 28; vs untreated controls
Procedure: Four to six weeks-old male C57BL/6 mice were purchased from Charles River (Calco, Corno, Italy). B 16 melanoma tumour cells were serially passaged subcutaneously (s.c.) in syngenic mice. On day 0, mice were injected s.c. in the right flank with 2×10^5 B16 melanoma cells. Tumour growth was measured daily in each mouse, using calipers, and mean tumour diameter per day was calculated. At day 7 after tumour injection, all mice with s.c. tumours of about 2-3 mm diameter were divided into different experimental groups, i.e. phosphate buffered saline (PBS)-injected control 3, CY, OM-174 or CY with OM-174.
Cyclophosphamide (Sigma, St. Louis, Mo.) was dissolved at 20 mg/ml in PBS immediately before use, and 0.2 ml per mouse were injected intraperitoneally. Each treated animal received a single dose of 200 mg/Kg CY on day 7.
Kaplan-Meier method was used to estimate the survivor functions and Log-rank test was performed for testing the homogeneity of survival functions across the four groups (control, CY, OM-174, CY+OM-174).
Tumor growth was analyzed by T-test for unpaired data.

EMT-6 cells = test: Direct radiosensitisation of EMT-6 cells, 8-day colony formation assay; format: cell-based, mouse
Procedure: Murine mammary adenocarcinoma EMT-6 cells were cultured in RPMI medium+10% bovine calf serum in plastic flasks. EMT-6 monolayer cultures grown to early confluence were exposed to OM-174 for 16 hours in both conditions (21% and 1% oxygen). After treatment with OM-174, nitrite determination using the classical Griess method was performed. Values were normalized for 200'000 cells per well.
Cells were then collected by trypsinization and the radioresponse was estimated as described previously (Van der Berge et al., 2001) Briefly, micropellets (0.5×10^6 cells) were produced in conical tubes by centrifugation at 300 g for 5 min. Metabolic oxygen depletion in micropellets was induced by incubation at 37° C. for 3 minutes prior to radiation. Micropellets were irradiated with a linear accelerator at a rate of 2 Gy per min and the survival fraction (SF) after 5, 10, 15, and 20 Gy was measured by a 8-day colony formation assay.

## CCCCCCCCCCCC(=O)O[C@H](CCCCCCCCCCC)CC(=O)N[C@@H]1C(O)[C@H](OP(=O)(O)O)C(CO)O[C@H]1OCC1O[C@H](OP(=O)(O)O)C(NC(=O)C[C@H](O)CCCCCCCCCCC)C(O)[C@@H]1O (stereo partly shown) [OM-174]
[1]
  Tolerability: well tolerated
[1]; i.v. infusion, non-haematological grade III and haematological grade IV NCI Common Toxicity Criteria
  Doses reached without unacceptable toxicity: higher than 1 mg OM-174/m^2
[1]; single dose study
  Cytokine secretion (TNF-α, IL-1b, IL-1ra, IL-6, IL-8, sTNF-RI, sTNF-RII, IL-10, IL-2, IL-2sRa, IFN-γ): secretion profile consistent with that of lipid A derivatives
B16 melanoma
  B16 tumour growth (in words, FIG. 1): partially inhibits tumour progression; also recorded: inhibited slightly but significantly
  Survival time (MST) of mice (in words, FIG. 2): slightly extends the survival time; also recorded: increased slightly but significantly
EMT-6 cells; 21% versus 1% oxygen
  Direct radiosensibilizing effect (in words, FIG. 7): directly radiosensibilizing agent for cancer cells only in hypoxic conditions
EMT-6 cells; hypoxic conditions, at either 3 or 30 mg/ml (FIG. 7)
  Lowering of the radiation dose necessary to kill 90% of the cells versus absence of OM-174: 1.67
